Measurements published in US20100197753A1, “Benzamides Useful as S1P Receptor Modulators” (Novartis AG, priority 2007, published 2010).

What was measured:
Format in all cases: biochemical
human S1P1 receptor = biological target: T1, human S1P1 receptor (Homo sapiens, UniProt P21453); experiment: 35S-GTPγS binding assay (Test 1), S1P1; details: membrane protein of transfected CHO cells, SPA; for EC50: read-out: EC50, receptor subtype S1P1
T1 construct: expressed in transfected cells; host or cells: CHO-K1 (ATCC CCL 61); RH7777 may also be used
T1 sequence (P21453 whole entry): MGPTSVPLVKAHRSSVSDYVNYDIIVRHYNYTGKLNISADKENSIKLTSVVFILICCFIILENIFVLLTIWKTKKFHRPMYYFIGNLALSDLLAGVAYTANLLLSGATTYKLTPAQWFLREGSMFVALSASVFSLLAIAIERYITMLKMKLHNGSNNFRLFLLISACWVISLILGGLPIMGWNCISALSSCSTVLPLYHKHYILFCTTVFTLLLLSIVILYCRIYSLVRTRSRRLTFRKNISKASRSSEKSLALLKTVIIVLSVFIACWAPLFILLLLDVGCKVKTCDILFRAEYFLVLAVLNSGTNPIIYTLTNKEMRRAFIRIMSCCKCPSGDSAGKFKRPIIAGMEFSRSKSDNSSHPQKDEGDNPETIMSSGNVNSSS
Procedure: (§1) Test 1: ^35S-GTPγS Binding Assay
(§2) The S1P receptor modulating properties of an agent of the invention are tested on the human S1P1, S1P2, S1P3, S1P4 and S1P5, respectively, receptor subtypes. The functional receptor activation is assessed by quantifying the compound-induced ^35S-GTPγS binding to membrane protein prepared from transfected heterologous cells stably expressing the appropriate S1P receptor subtype. CHO cells (CHO-K1, Chinese hamster, ATCC no. CCL 61) are used [RH7777 cells (rat Morris hepatoma, ATCC no. CRL 1601) may also be used]. The membrane protein is prepared from wild-type cells and from different cell clones expressing the appropriate S1P receptor subtype. The assay technology used is SPA (scintillation proximity based assay). A DMSO solution of the test compound is serially diluted and added to SPA-bead (Amersham-Pharmacia) immobilised S1P receptor subtype expressing membrane protein (1 to 20 μg/well) in the presence of 50 mM HEPES, 100 mM NaCl, 10 mM MgCl2, 10 μM GDP, 0.1% fat free BSA and 0.2 nM ^35S-GTPγS (1200 Ci/mmol) (pH 7.4). After incubation in 96 well microtiter plates at room temperature for 120 minutes, the unbound ^35S-GTPγS is separated by centrifugation. The luminescence of SPA beads triggered by membrane bound ^35S-GTPγS is quantified with a TOPcount plate reader (Packard). To evaluate the S1P receptor modulation, the stimulation (in %) compared to the baseline is calculated as the binding in the presence of the compound divided by the binding in the absence of a ligand, multiplied by 100. Dose response curves are plotted using a non-linear regression curve fitting program, and the EC50 is defined as the concentration of the compound required to give 50% of its maximum stimulation. Preferably, the EC50 value of an agent of the invention in this test is 10′000 nM or less. The selectivity of the compound towards the S1P receptor subtypes is determined by measuring for each of the different S1P receptor subtypes the level of ^35S-GTPγS binding in the presence of the compound using each of the different membrane proteins.

human S1P4 receptor = biological target: T2, human S1P4 receptor (Homo sapiens, UniProt O95977); experiment: 35S-GTPγS binding assay (Test 1), S1P4; details: membrane protein of transfected CHO cells, SPA; for EC50: read-out: EC50, receptor subtype S1P4
T2 construct: expressed in transfected cells; host or cells: CHO-K1 (ATCC CCL 61); RH7777 may also be used
T2 sequence (O95977 1-384): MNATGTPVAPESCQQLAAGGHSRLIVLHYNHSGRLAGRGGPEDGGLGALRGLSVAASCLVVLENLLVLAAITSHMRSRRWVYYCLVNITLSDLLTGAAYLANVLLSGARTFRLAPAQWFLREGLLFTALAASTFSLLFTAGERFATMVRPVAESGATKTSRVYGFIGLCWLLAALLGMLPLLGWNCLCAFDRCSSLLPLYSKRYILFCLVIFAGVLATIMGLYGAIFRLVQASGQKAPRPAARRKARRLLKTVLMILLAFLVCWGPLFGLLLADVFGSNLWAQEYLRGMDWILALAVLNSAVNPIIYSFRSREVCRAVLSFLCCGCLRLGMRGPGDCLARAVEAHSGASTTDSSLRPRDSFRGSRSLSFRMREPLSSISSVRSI
Procedure: as §1, §2

human S1P5 receptor = biological target: T3, human S1P5 receptor (Homo sapiens, UniProt Q9H228); experiment: 35S-GTPγS binding assay (Test 1), S1P5; details: membrane protein of transfected CHO cells, SPA; for EC50: read-out: EC50, receptor subtype S1P5
T3 construct: expressed in transfected cells; host or cells: CHO-K1 (ATCC CCL 61); RH7777 may also be used
T3 sequence (Q9H228 whole entry): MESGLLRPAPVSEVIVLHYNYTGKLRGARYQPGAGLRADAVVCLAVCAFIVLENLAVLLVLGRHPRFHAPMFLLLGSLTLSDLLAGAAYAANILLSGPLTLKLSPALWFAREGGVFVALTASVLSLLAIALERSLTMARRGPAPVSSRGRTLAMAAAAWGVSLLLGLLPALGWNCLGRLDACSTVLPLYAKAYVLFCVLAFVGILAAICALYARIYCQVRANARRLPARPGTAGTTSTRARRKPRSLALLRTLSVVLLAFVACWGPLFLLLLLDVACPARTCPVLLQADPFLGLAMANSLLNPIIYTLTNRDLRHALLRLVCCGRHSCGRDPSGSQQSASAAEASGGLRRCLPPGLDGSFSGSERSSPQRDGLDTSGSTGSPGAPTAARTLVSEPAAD
Procedure: as §1, §2

COc1ccc(Nc2c(C)cc(C)cc2C)c(C(N)=O)c1 [Example 36, 5-Methoxy-2-(2,4,6-trimethyl-phenylamino)-benzamide]
efficacy, receptor subtype S1P1 (human S1P1 receptor): 87% | EC50 (human S1P1 receptor): 305 nM | efficacy, receptor subtype S1P4 (human S1P4 receptor): 126% | EC50 (human S1P4 receptor): 210 nM | efficacy, receptor subtype S1P5 (human S1P5 receptor): 64% | EC50 (human S1P5 receptor): 80 nM

Cc1cc(C)c(Nc2ccc(Cl)cc2C(N)=O)c(C)c1 [Example 37, 5-Chloro-2-(2,4,6-trimethyl-phenylamino)-benzamide]
efficacy, receptor subtype S1P1 (human S1P1 receptor): 93% | EC50 (human S1P1 receptor): 150 nM | efficacy, receptor subtype S1P4 (human S1P4 receptor): 109% | EC50 (human S1P4 receptor): 160 nM | efficacy, receptor subtype S1P5 (human S1P5 receptor): 66% | EC50 (human S1P5 receptor): 90 nM

CCCn1nccc1-c1ccc(Nc2c(C)cc(C)cc2C)c(C(N)=O)c1 [Example 27, 5-(2-Propyl-2H-pyrazol-3-yl)-2-(2,4,6-trimethyl-phenylamino)-benzamide]
efficacy, receptor subtype S1P1 (human S1P1 receptor): 85% | EC50 (human S1P1 receptor): 495 nM | efficacy, receptor subtype S1P4 (human S1P4 receptor): 130% | EC50 (human S1P4 receptor): 106 nM | efficacy, receptor subtype S1P5 (human S1P5 receptor): 93% | EC50 (human S1P5 receptor): 25 nM
